Assay results as given in ChEMBL document CHEMBL5625263, “Discovery of a novel series of selective macrocyclic PKCTheta inhibitors” (Bioorg Med Chem Lett, 2024).
pIC50: −log10 of the molar value. Values after ≈ are worked out from the molar mass of the structure shown.

How the values were obtained:
[1] = target: T1, Protein kinase C alpha type (Homo sapiens, UniProt P17252); assay: Inhibition of PKC alpha (unknown origin) in presence of ATP at Km
[2] = target: T2, Protein kinase C theta type (Homo sapiens, UniProt Q04759); assay: Inhibition of PKC theta (unknown origin) in presence of ATP at Km
[3] = Apparent permeability of a compound in human Caco-2 cells; format: ADME, cell-based
[4] = Clearance in rat; format: ADME; details: in vivo
[5] = target: T1, Protein kinase C alpha type; assay: Inhibition of PKC alpha (unknown origin) in presence of 1 mM ATP
[6] = target: T2, Protein kinase C theta type; assay: Inhibition of PKC theta in TCR-stimulated human PBMC assessed as inhibition of IL-2 release; format: cell-based
[7] = Efflux ratio of apparent permeability across basolateral to apical side over apical to basolateral side in human Caco-2 cells; format: ADME, cell-based
[8] = target: T2, Protein kinase C theta type; assay: Inhibition of PKC theta (unknown origin) in presence of 1 mM ATP
[9] = Oral bioavailability in rat; format: ADME, organism-based; details: in vivo
[10] = Solubility of the compound; format: physicochemical
[11] = Metabolic stability in human hepatocytes assessed as intrinsic clearance measured per 10^6 cells; format: ADME, cell-based, Hepatocyte; details: read-out: CLH
[12] = Volume of distribution at steady state in rat; format: ADME; details: in vivo, read-out: Vdss
[13] = Selectivity ratio of inhibition of PKCbeta1 (unknown origin) to inhibition of PKC theta (unknown origin) at 1 mM ATP concentration
[14] = Selectivity ratio of inhibition of PKCdelta (unknown origin) to inhibition of PKC theta (unknown origin) at 1 mM ATP concentration
[15] = Selectivity ratio of inhibition of TRKA (unknown origin) to inhibition of PKC theta (unknown origin) at 1 mM ATP concentration
[16] = Selectivity ratio of inhibition of HGK (unknown origin) to inhibition of PKC theta (unknown origin) at 1 mM ATP concentration
[17] = Selectivity ratio of inhibition of AURB (unknown origin) to inhibition of PKC theta (unknown origin) at 1 mM ATP concentration
[18] = Selectivity ratio of inhibition of CLK1 (unknown origin) to inhibition of PKC theta (unknown origin) at 1 mM ATP concentration
[19] = Selectivity ratio of inhibition of FLT3 (unknown origin) to inhibition of PKC theta (unknown origin) at 1 mM ATP concentration
[20] = Selectivity ratio of inhibition of MSK1 (unknown origin) to inhibition of PKC theta (unknown origin) at 1 mM ATP concentration
[21] = Selectivity ratio of inhibition of GSK3beta (unknown origin) to inhibition of PKC theta (unknown origin) at 1 mM ATP concentration
[22] = Selectivity ratio of inhibition of PKACalpha (unknown origin) to inhibition of PKC theta (unknown origin) at 1 mM ATP concentration
[23] = Selectivity ratio of inhibition of PKCeta (unknown origin) to inhibition of PKC theta (unknown origin) at 1 mM ATP concentration
[24] = Selectivity ratio of inhibition of PI3K-C2beta (unknown origin) to inhibition of PKC theta (unknown origin) at 1 mM ATP concentration
[25] = Selectivity ratio of inhibition of RSK3 (unknown origin) to inhibition of PKC theta (unknown origin) at 1 mM ATP concentration
[26] = Half life in rat; format: ADME; details: in vivo

T2 sequence (Q04759 whole entry): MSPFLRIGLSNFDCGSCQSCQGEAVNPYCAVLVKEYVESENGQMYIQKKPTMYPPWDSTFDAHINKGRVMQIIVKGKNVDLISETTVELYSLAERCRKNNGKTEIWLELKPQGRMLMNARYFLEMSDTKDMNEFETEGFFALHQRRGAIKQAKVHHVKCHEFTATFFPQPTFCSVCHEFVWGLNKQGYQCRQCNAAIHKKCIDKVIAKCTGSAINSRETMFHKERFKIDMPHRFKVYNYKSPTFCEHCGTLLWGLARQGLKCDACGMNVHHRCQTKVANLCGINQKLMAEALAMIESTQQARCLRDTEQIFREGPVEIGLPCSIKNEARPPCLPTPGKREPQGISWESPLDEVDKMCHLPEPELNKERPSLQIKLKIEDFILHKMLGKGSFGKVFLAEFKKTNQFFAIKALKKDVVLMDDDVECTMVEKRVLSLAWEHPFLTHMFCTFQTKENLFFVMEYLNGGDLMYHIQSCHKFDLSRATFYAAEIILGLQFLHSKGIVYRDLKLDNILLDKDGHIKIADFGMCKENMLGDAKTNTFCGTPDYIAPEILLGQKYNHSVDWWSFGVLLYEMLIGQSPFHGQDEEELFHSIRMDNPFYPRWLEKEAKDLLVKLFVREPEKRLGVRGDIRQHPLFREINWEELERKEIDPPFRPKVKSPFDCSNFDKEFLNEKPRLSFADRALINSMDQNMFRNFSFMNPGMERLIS

## CC1CCC(C)n2ccc(=O)c3cc(F)c(nc32)-n2c(=O)[nH]c3nccc(c32)O1 (stereo unspecified)
[1]
  pIC50: 7.31
[2]
  pIC50: > 9.30
[3]
  Papp: 2.1 ×10⁻⁶ cm/s
[4]
  clearance: 41 mL/min/kg
[5]
  pIC50: 6.26
[6]
  pIC50: 7.77
[7]
  efflux ratio: 13
[8]
  pIC50: > 9.30
[9]
  bioavailability: 40%
[10]
  solubility: 271 µM (≈ 107 µg/mL)
[11]
  hepatocyte CLint: < 4 µL/min/1e6 cells
[12]
  Vd: 3.2 L/kg

## CC1CCC(C)n2ccc(=O)c3ccc(nc32)-n2c(=O)[nH]c3nccc(c32)O1 (stereo unspecified)
[13]
  Selectivity ratio: 262
[14]
  Selectivity ratio: 346
[15]
  Selectivity ratio: 2200
[16]
  Selectivity ratio: > 6250
[1]
  pIC50: 6.85
[2]
  pIC50: > 9.30
[3]
  Papp: 4 ×10⁻⁶ cm/s
[17]
  Selectivity ratio: 2850
[4]
  clearance: 36 mL/min/kg
[18]
  Selectivity ratio: > 6250
[19]
  Selectivity ratio: 1310
[5]
  pIC50: 6.10
[20]
  Selectivity ratio: 945
[6]
  pIC50: 7.59
[7]
  efflux ratio: 8
[21]
  Selectivity ratio: 4540
[8]
  pIC50: 8.80
[22]
  Selectivity ratio: > 6250
[9]
  bioavailability: 20%
[10]
  solubility: 123 µM (≈ 46.4 µg/mL)
[23]
  Selectivity ratio: 482
[24]
  Selectivity ratio: 3050
[25]
  Selectivity ratio: 4910
[11]
  hepatocyte CLint: < 4 µL/min/1e6 cells
[12]
  Vd: 2.7 L/kg

## CC1CC(C)Oc2ccnc3[nH]c(=O)n(c23)-c2cccc(n2)O1 (stereo unspecified)
[13]
  Selectivity ratio: 188
[14]
  Selectivity ratio: 99
[15]
  Selectivity ratio: > 370
[16]
  Selectivity ratio: 40
[1]
  pIC50: 6.09
[2]
  pIC50: 8.70
[3]
  Papp: 32 ×10⁻⁶ cm/s
[17]
  Selectivity ratio: > 370
[4]
  clearance: 12 mL/min/kg
[18]
  Selectivity ratio: > 370
[19]
  Selectivity ratio: 78
[5]
  pIC50: 5.22
[20]
  Selectivity ratio: 142
[6]
  pIC50: 7.24
[7]
  efflux ratio: 0.6
[21]
  Selectivity ratio: > 370
[8]
  pIC50: 7.57
[22]
  Selectivity ratio: > 370
[9]
  bioavailability: 50%
[10]
  solubility: 95 µM (≈ 29.7 µg/mL)
[23]
  Selectivity ratio: 43
[24]
  Selectivity ratio: > 370
[25]
  Selectivity ratio: > 370
[11]
  hepatocyte CLint: < 4 µL/min/1e6 cells
[12]
  Vd: 1.8 L/kg

## CC1CCCOc2nc(ccc2C(N)=O)-n2c(=O)[nH]c3nccc(c32)O1 (stereo unspecified)
[13]
  Selectivity ratio: 147
[14]
  Selectivity ratio: 38
[15]
  Selectivity ratio: 491
[16]
  Selectivity ratio: 51
[1]
  pIC50: 6.11
[2]
  pIC50: 9.05
[3]
  Papp: 3.9 ×10⁻⁶ cm/s
[17]
  Selectivity ratio: 763
[4]
  clearance: 19.6 mL/min/kg
[18]
  Selectivity ratio: 66
[19]
  Selectivity ratio: 21
[5]
  pIC50: 5.19
[20]
  Selectivity ratio: 322
[6]
  pIC50: 7.54
[7]
  efflux ratio: 8
[21]
  Selectivity ratio: 66
[8]
  pIC50: 7.92
[22]
  Selectivity ratio: 501
[26]
  half-life: 2.2 h
[9]
  bioavailability: 53%
[10]
  solubility: 300 µM (≈ 107 µg/mL)
[23]
  Selectivity ratio: 43
[24]
  Selectivity ratio: 133
[25]
  Selectivity ratio: 311
